For six compounds, IC50 results are on record in patent publication US5624924A, “Quinobenzothiazine antineoplastic agents” (priority 1994, dated 1997).

Molecules are shown by their SMILES. Values after ≈ are worked out from the molar mass of the structure shown. Structures can show the parent of a compound that is named as a salt.

Holding throughout (format): cell-based
The subject of test [1] is HT-29 human colon cancer cell line. In words: In vitro cytotoxicity (MTT), HT-29. The conditions noted are these: HT-29, 72 h, read-out: In Vitro Cytotoxicity (IC50), HT-29, Table 2, ADR: average of two tests. The protocol:
(§1) Metabolic activity was measured by the cells' ability to reduce the tetrazolium dye, 3-(4,5-dimethylthiazol-2-yl)-2,5-diphenyltetrazolium bromide (MTT), to a quantifiable colored formasan derivative. Surviving cells reduce the MTT dye. The inhibitory concentrations of killing 50% of the cells (IC50 s) were calculated. Testing was in accord with the following protocol:
(§2) Test compounds and a reference antineoplastic agent, ADRIAMYCIN (doxorubicin hydrochloride), were dissolved in dimethyl sulfoxide (DMSO) and diluted, first with Earle's Balanced Salt Solution, followed by culture medium, to twice the highest concentration of the compound to be tested. From this concentrated stock, two-fold serial dilutions were prepared in 96-well microtiter trays, each well containing twice the desired final concentration of the compound. Each concentration was tested in triplicate and compared to triplicate drug-free controls.
(§3) The cells were grown in the same medium used for diluting the compounds. Adherent cells were harvested by trypsinization according to the following procedure:
(§4) After harvesting by trypsinization, viable cell counts were determined and cell density was adjusted to 25,000 cells/mL. Inoculum (0.1 mL) was then added to each well for a final concentration of 2,500 cells per well. Addition of the inoculum was used to dilute the test compounds to the desired concentration.
(§5) Microtiter trays were incubated for three days at 36° C. in a humidified atmosphere containing 5% carbon dioxide.
(§6) After three days, 20 microliters of 5 mg/mL MTT in phosphate-buffered solution were added to each well of the microtiter trays. The microtiter trays were then returned to the incubator for two to four hours to allow the surviving cells to reduce the dye. After this incubation, both the medium and the unreduced dye were removed by aspiration. DMSO was added to each well to dissolve the water-insoluble, colored end product of the dye reduction for spectrophotometric measurement at 570 nm.
(§7) The results obtained which clearly show the cytotoxicity of the compounds of Examples 5, 6, 7 and 8 against […] tumor cell lines A549, HCT-8, HT-29 and P388-D1, are illustrated in Table 1. (A549 is a human lung cancer cell line; HCT-8 is a human colon cancer cell line; HT-29 is a human colon cancer cell line; and P388-D1 is a mouse leukemia cell line.)

Test [2] concerns P388 mouse leukemia cell line. Put plainly: In vitro cytotoxicity (MTT), P388. As to conditions: P388, 72 h, read-out: In Vitro Cytotoxicity (IC50). The protocol: as §1, §2, §3, §4, §5, §6
(§8) Compounds from Examples 4, 6, 8, 9 and 10 were additionally tested against human and murine tumor cell lines A549, HT-29, P388-D1, P388, P388-ADR(0.0), P388-ADR(0.1) and B16F109. (P388 is a mouse leukemia cell line similar to P388-D1, but animal-passaged; P388-ADR (0.0) is an ADRIAMYCIN-resistant variant of P388, the inoculum of which is grown in drug-free medium; P388-ADR (0.1) is an ADRIAMYCIN-resistant variant of P388, the inoculum of which is grown in medium with 0.1 mcg.ml ADRIAMYCIN; and B16F10 is a mouse melanoma.) The results are presented in Table 2; as shown in the table, the compounds of the present invention are effective cytotoxic agents even against the ADRIAMYCIN-resistant cell line P388-ADR.

Test [3] has as its system B16F10 mouse melanoma. Put plainly: In vitro cytotoxicity (MTT), B16F10. The conditions noted are these: B16-F10, 72 h, read-out: In Vitro Cytotoxicity (IC50). The protocol:
as §1, §2, §3, §4, §5, §6, §8

Test [4] concerns A549 human lung cancer cell line. In words: In vitro cytotoxicity (MTT), A549. The conditions noted are these: A549, 72 h, read-out: In Vitro Cytotoxicity (IC50), A549, Table 2, ADR: average of two tests. The protocol:
as §1, §2, §3, §4, §5, §6, §7

What is called IC50 is the concentration that inhibits the measured activity by half.

For the compound `NC1CCN(c2c(F)cc3c(=O)c(C(=O)O)cn4c3c2Oc2cc3c(cc2-4)OCO3)C1` (stereo not drawn) [Example 32, 1(3-aminopyrrolidin-1-yl)-2-fluoro-8,9-methylenedioxy-4-oxo-4H-quino[2,3,4-i,j][1,4]benzoxazine-5-carboxylic acid hydrochloride], the IC50 turned out to be 0.042 µg/mL in test [1], 0.022 µg/mL in test [2], 0.018 µg/mL in test [3] and 0.134 µg/mL in test [4].
In the same order, the values of `Cc1ccc2c(c1)Oc1c(N3CC[C@@H](N)C3)c(F)cc3c(=O)c(C(=O)O)cn-2c13` [Example 19, 1-((3R)-3-aminopyrrolidin-1-yl)-2-fluoro-9-methyl-4-oxo-4H-quino[2,3,4-i,j][1,4]benzoxazine-5-carboxylic acid hydrochloride] are 0.052 µg/mL, 0.047 µg/mL, 0.049 µg/mL and 0.24 µg/mL.
In the same order, the values of `NC1CCN(c2c(F)cc3c(=O)c(C(=O)Nc4ccc(F)cc4F)cn4c3c2Oc2ccccc2-4)C1` (stereo not drawn) [Example 30, 1-(3-aminopyrrolidin-1-yl)-2-fluoro-4-oxo-4H-quino[2,3,4-i,j][1,4]benzoxazine-5-(N-2,4-difluorphenyl)carboxamide hydrochloride] are 1.6 µg/mL, 0.6 µg/mL, 1.3 µg/mL and 4.1 µg/mL.
With `CCOC(=O)c1cn2c3c(c(N4CCC(N)C4)c(F)cc3c1=O)Oc1cc3c(cc1-2)OCO3` (stereo not drawn) [Example 35, Ethyl 1-(3-aminopyrrolidin-1-yl)-2-fluoro-8,9-methylenedioxy-4-oxo-4H-quino[2,3,4-i,j][1,4]benzoxazine-5-carboxylate], the IC50 in test [1] came out at 0.093 µg/mL (≈ 0.205 µM); in test [2] it was 0.034 µg/mL (≈ 0.075 µM); in test [3] it was 0.077 µg/mL (≈ 0.17 µM); in test [4], 0.26 µg/mL (≈ 0.573 µM).
The corresponding values for `CC(C)(C)c1ccc2c(c1)-n1cc(C(=O)O)c(=O)c3cc(F)c(N4CCC(N)C4)c(c31)O2` (stereo not drawn) [Example 21, 1-(3-aminopyrrolidin-1-yl)-8-t-butyl-2-flouro-4-oxo-4H-quino[2,3,4-i,j][1,4]benzoxazine-5-carboxylic acid hydrochloride] are 0.078 µg/mL, 0.063 µg/mL, 0.045 µg/mL and 0.247 µg/mL.
The corresponding values for `Cc1cc(C)c2c(c1)-n1cc(C(=O)O)c(=O)c3cc(F)c(N4CCC(N)C4)c(c31)O2` (stereo not drawn) [Example 15, 1-(3-aminopyrrolidin-1-yl)-8,10-dimethyl-2-fluoro-4-oxo-4H-quino[2,3,4-i,j][1,4]benzoxazine-5-carboxylic acid hydrochloride] are 0.015 µg/mL, 0.012 µg/mL, 0.015 µg/mL and 0.034 µg/mL.
